The source of these data is ChEMBL document CHEMBL6074634, “Design, synthesis, and evaluation of novel oxyacanthine derivatives for anti-SARS-CoV-2 activity” (Bioorg Med Chem Lett, 2024).

Activity calls are given as the source filed them. No cut-off for these calls is given here.

The nature of data set [1]: Cytotoxicity against African green monkey Vero E6 cells assessed as cell viability by CCK-8 assay. It counts as toxicity, cell-based, Vero C1008. As to conditions: African green monkey (Chlorocebus sabaeus).
Data set [2] in a line: AUC (0 to 24 hrs) in male ICR mouse at 2.5 mg/kg, iv measured upto 24 hrs by LC-MS/MS analysis. It counts as ADME, organism-based. The settings on record: in vivo.
A short description of data set [3]: AUC (0 to 24 hrs) in male ICR mouse at 10 mg/kg, po measured upto 24 hrs by LC-MS/MS analysis. It counts as ADME, organism-based. The settings on record: in vivo.
Data set [4] is described as follows: Cmax in male ICR mouse at 10 mg/kg, po measured upto 24 hrs by LC-MS/MS analysis. It counts as ADME, organism-based. As to conditions: in vivo.
Data set [5] in a line: Half life in male ICR mouse at 2.5 mg/kg, iv measured upto 24 hrs by LC-MS/MS analysis. It counts as ADME, organism-based. As to conditions: in vivo.
Data set [6] can be described thus: Half life in male ICR mouse at 10 mg/kg, po measured upto 24 hrs by LC-MS/MS analysis. It counts as ADME, organism-based. As to conditions: in vivo.
Data set [7] in a line: Tmax in male ICR mouse at 10 mg/kg, po measured upto 24 hrs by LC-MS/MS analysis. It counts as ADME, organism-based. The settings on record: in vivo.
Data set [8] can be described thus: Oral bioavailability in male ICR mouse at 10 mg/kg measured upto 24 hrs by LC-MS/MS analysis. It counts as ADME, organism-based. The settings on record: in vivo.
Data set [9] relates to Severe acute respiratory syndrome coronavirus 2. Nature of the data set: Inhibition of SARS CoV-2 envelope (2-E) channel at 100 uM.
Data set [10] can be described thus: Toxicity in mouse assessed as animal death at 10 to 200 mg/kg administered for 10 days. As to conditions: in vivo, 240 h, dose 10-200 mg/kg, time 10 day. It counts as organism-based.
The nature of data set [11]: Toxicity in mouse assessed as body weight loss at 10 to 200 mg/kg administered for 10 days. It counts as organism-based. As to conditions: in vivo, 240 h, dose 10-200 mg/kg, time 10 day.
Data set [12] can be described thus: Inhibition of SARS CoV-2 envelope (2-E) channel. On the set-up: species or system Severe acute respiratory syndrome coronavirus 2.

Take `COc1cc2c3cc1Oc1c(OC)c(OC)cc4c1[C@H](Cc1ccc(cc1)Oc1cc(ccc1C(=O)NC(C)C)C[C@H]3N(C)CC2)N(C)CC4`: in [1], the IC50 worked out at 26.4 µM.
Take `CCCCCNC(=O)c1ccc2cc1Oc1ccc(cc1)C[C@H]1c3c(cc(OC)c(OC)c3Oc3cc4c(cc3OC)CCN(C)[C@@H]4C2)CCN1C`: the IC50 in [1] worked out at 22.5 µM.
Still for that read-out and setting: the value for `C=CC(=O)Nc1ccc2cc1Oc1ccc(cc1)C[C@H]1c3c(cc(OC)c(OC)c3Oc3cc4c(cc3OC)CCN(C)[C@@H]4C2)CCN1C` was 31.1 µM.
On the same count and under the same terms, as for `COC(=O)c1ccc2cc1Oc1ccc(cc1)C[C@H]1c3c(cc(OC)c(OC)c3Oc3cc4c(cc3OC)CCN(C)[C@@H]4C2)CCN1C`, the figure is 29.5 µM; as for `COc1cc2c3cc1Oc1c(OC)c(OC)cc4c1[C@H](Cc1ccc(cc1)Oc1cc(ccc1C(=O)N1CCCCC1)C[C@H]3N(C)CC2)N(C)CC4`, 24.6 µM; as for `COc1cc2c3cc1Oc1c(OC)c(OC)cc4c1[C@H](Cc1ccc(cc1)Oc1cc(ccc1C(=O)NCCOCCO)C[C@H]3N(C)CC2)N(C)CC4`, 123 µM.
Take `COc1cc2c3cc1Oc1c(OC)c(OC)cc4c1[C@H](Cc1ccc(cc1)Oc1cc(ccc1C(=O)Nc1ccc(C(F)(F)F)cc1)C[C@H]3N(C)CC2)N(C)CC4`: the IC50 in [1] came out at 10.5 µM.
For `COc1cc2c3cc1Oc1c(OC)c(OC)cc4c1[C@H](Cc1ccc(cc1)OC1C=C(Cc5[nH]c(=O)oc51)C[C@H]3N(C)CC2)N(C)CC4` (some centres undefined), the concentration for half-maximal inhibition (IC50) in [1] was found to be 14.8 µM.
On the same count and under the same terms, the value for `COc1cc2c3cc1Oc1c(OC)c(OC)cc4c1[C@H](Cc1ccc(cc1)Oc1cc(ccc1C1CC1)C[C@H]3N(C)CC2)N(C)CC4` was 10.9 µM; that for `COc1cc2c3cc1Oc1c(OC)c(OC)cc4c1[C@H](Cc1ccc(cc1)Oc1cccc(c1)C[C@H]3N(C)CC2)N(C)CC4` was 17.1 µM.
Still for that read-out and setting: as for `COc1cc2c3cc1Oc1c(OC)c(OC)cc4c1[C@H](Cc1ccc(cc1)Oc1cc(cc([N+](=O)[O-])c1)C[C@H]3N(C)CC2)N(C)CC4`, the figure is 24.3 µM.
With `COc1cc2c3cc1Oc1c(OC)c(OC)cc4c1[C@H](Cc1ccc(cc1)Oc1cc(ccc1O)C[C@H]3N(C)CC2)N(C)CC4` [AROMOLINE], the half-maximal inhibitory concentration (IC50) in data set [1] worked out at 29.9 µM. The results for the AUC(0-t) at 24 h in data set [2] and in data set [3] were 1300 ng·h/mL and 1790 ng·h/mL, respectively. This compound registered a Cmax in data set [4] of 260 ng/mL. The half-life in data set [5] was 792 min; in data set [6] it was 383 min. Besides, in data set [7], the time to peak (Tmax) is 0.33 h. The same compound yielded a bioavailability in [8] of 34.5%.
`COc1cc2c3cc1Oc1c(OC)c(OC)cc4c1[C@H](Cc1ccc(cc1)Oc1cc(ccc1C(=O)NC1CC1)C[C@H]3N(C)CC2)N(C)CC4`: the half-maximal inhibitory concentration (IC50) in [1] is 62.3 µM. The AUC(0-t) at 24 h in data set [2] came out at 1840 ng·h/mL; in data set [3], 5000 ng·h/mL. Also, in [4], the peak concentration (Cmax) was determined as 313 ng/mL. Moreover, the half-life was 1270 min in [5] and 961 min in [6]. Besides, the Tmax in data set [7] is 1 h. Moreover, the bioavailability in data set [8] was found to be 68.1%. In addition, in [9], the inhibition entry was “inactive”.
Regarding `COc1cc2c3cc1Oc1c(OC)c(OC)cc4c1[C@H](Cc1ccc(cc1)Oc1cc(ccc1C)C[C@H]3N(C)CC2)N(C)CC4`, the IC50 in [1] came to 10.3 µM.
Same read-out and setting: as for `COc1cc2c3cc1Oc1c(OC)c(OC)cc4c1[C@H](Cc1ccc(cc1)Oc1cc(ccc1C(=O)NC15CC6CC(CC(C6)C1)C5)C[C@H]3N(C)CC2)N(C)CC4`, the figure is 4.9 µM.
The same measure, in the same setting: the value for `COc1cc2c3cc1Oc1c(OC)c(OC)cc4c1[C@H](Cc1ccc(cc1)Oc1cc(ccc1C(=O)NC1CCC1)C[C@H]3N(C)CC2)N(C)CC4` was 33.9 µM.
Still for that read-out and setting: the value for `CNC(=O)c1ccc2cc1Oc1ccc(cc1)C[C@H]1c3c(cc(OC)c(OC)c3Oc3cc4c(cc3OC)CCN(C)[C@@H]4C2)CCN1C` was 66.7 µM; that for `COc1cc2c3cc1Oc1c(OC)c(OC)cc4c1[C@H](Cc1ccc(cc1)Oc1cc(ccc1C(=O)Nc1ccccc1)C[C@H]3N(C)CC2)N(C)CC4` was 6.88 µM.
Turning to `COc1cc2c3cc1Oc1c(OC)c(OC)cc4c1[C@H](Cc1ccc(cc1)Oc1cc(ccc1C(N)=O)C[C@H]3N(C)CC2)N(C)CC4`, the half-maximal inhibitory concentration (IC50) in [1] turned out to be 63.2 µM; in data set [12], 780 nM. Also, the values for the AUC(0-t) at 24 h in data set [2] and in [3] were 4120 ng·h/mL and 12800 ng·h/mL, respectively. Besides, the Cmax in [4] was 854 ng/mL. The figures for the half-life in data set [5] and in data set [6] were 1030 min and 752 min, respectively. Moreover, in data set [7], the Tmax is 1.75 h. The compound also displayed a bioavailability in data set [8] of 77.4%. In addition, the Activity entry in [10] and in [11] was “Non-toxic” throughout.
Take `COc1cc2c3cc1Oc1c(OC)c(OC)cc4c1[C@H](Cc1ccc(cc1)Oc1cc(ccc1C(=O)NC1CCCC1)C[C@H]3N(C)CC2)N(C)CC4`: the half-inhibitory concentration (IC50) in data set [1] came to 22.5 µM.
On the same count and under the same terms, the value for `COc1cc2c3cc1Oc1c(OC)c(OC)cc4c1[C@H](Cc1ccc(cc1)Oc1cc(ccc1C(C)=O)C[C@H]3N(C)CC2)N(C)CC4` was 29.4 µM.
Still for that read-out and setting: the value for `COc1cc2c3cc1Oc1c(OC)c(OC)cc4c1[C@H](Cc1ccc(cc1)Oc1cc(ccc1C(=O)Nc1cccnc1)C[C@H]3N(C)CC2)N(C)CC4` was 26.4 µM; that for `C=C(C)c1ccc2cc1Oc1ccc(cc1)C[C@H]1c3c(cc(OC)c(OC)c3Oc3cc4c(cc3OC)CCN(C)[C@@H]4C2)CCN1C` was 6.13 µM.
Still for that read-out and setting: as for `COc1ccc(NC(=O)c2ccc3cc2Oc2ccc(cc2)C[C@H]2c4c(cc(OC)c(OC)c4Oc4cc5c(cc4OC)CCN(C)[C@@H]5C3)CCN2C)cc1`, the figure is 10.6 µM.
